Data published in patent publication US20030216569A1, “Method of making HIV protease inhibitors” (priority 1993, published 2003).
In brackets after ≈: the same amount, converted by molar mass. Several values for one entry are separate records, joined by “and”; a condition that tells them apart may be missing. Equal entries are not always repeated.

Key:
[1] = system: HIV-1 isolates IIIB and/or RF in MT-2 cells; experiment: SRI primary anti-HIV screen, MTT assay of inhibition of HIV-induced cell killing in MT2 cells; type: cell-based; conditions: for SRI MT2 IC50: MT2 cells; for IC50: Human immunodeficiency virus 1, IIIB, MT2, read-out: SRI MT2 IC50 ng/ml, MT2 cells
Excerpt: I. Primary Drug Screening of Anti-HIV Compounds at Southern Research Institute (SRI) (Results recorded in Table 1 are designated “SRI CEM (ng/ml)” or “SRI MT2 (ng/ml)”)
(§1) A. Principle of MTT Assay:
(§2) SRI has an established program for the primary antiviral analysis of compounds in microtiter assays which measures the ability of a selected compound to inhibit HIV-induced cell killing. This assay involves the conversion of the tetrazolium dye MTT to a colored formazan product by mitochondrial enzymes in metabolically active cells. This assay system is used at SRI to screen over 30,000 compounds per year. Briefly, the assay involves the infection of CEM or MT2 cells in round bottom 96-well plates. The compound of interest is added just prior to infection. Following 6 days of incubation at 37° C. the plates are stained with MTT. The results of the assay are quantitated spectrophotometrically on a Molecular Devices Vmax plate reader. The data are analyzed by linear regression utilizing an in-house software program to calculate antiviral activity (IC25, IC50, IC95) and toxicity (TC25, TC50, TC95) as well as other values.
(§3) Primary antiviral assays are routinely performed in CEM or MT-2 cells.
(§4) B. Standard Screening Assays in CEM and MT-2 Cells
(§5) 1. Compound dilution and delivery to the plates
Drugs are solubilized in the appropriate vehicle such as distilled water or DMSO if necessary. Latex gloves, lab coats and masks are used during all phases of the handling process to prevent exposure to potentially harmful agents. The drug is prepared at the appropriate concentration and stored at −20° C. until used by the screening laboratory. The first dilution of each compound is made in a dilution tube with medium to yield a concentration two-fold that of the highest test concentration. Sterile titer tubes are then used to make serial one half-log dilutions of each compound. Following drug dilution, the diluted compound is added to the appropriate well of a 96-well microtiter plate. […] When testing includes only six dilutions, two drugs can be assayed on a single microtiter plate. The drugs are added to the plate in a final volume of 100 microliters.
(§6) During the time the drug dilutions are prepared, cells are washed and counted. Viability is monitored by trypan blue dye exclusion and assays are not performed if the viability falls below 90%. Cells are maintained in an exponential growth phase and are split 1:2 on the day prior to assay to assure exponential growth rate.
(§7) For the primary screen, the cell lines utilized are CEM and MT-2. Unless otherwise indicated, the medium used is RPMI 1640 with 10% heat-inactivated fetal calf serum (FBS), glutamine and antibiotics.
(§8) Cells are propagated at 37° C. in an atmosphere of 5% CO2 in air. The virus employed for this work is HIV-1 isolates IIIB and/or RF, which are prepared by an acute infection process.
(§9) Briefly, virus-infected cells are pelleted on a daily basis beginning at three days post-infection until the virus has killed all of the cells in the culture. Reverse transcriptase activity and p24 ELISA are used to identify pools with the greatest amout of virus.
(§10) These 24-hour harvests are pooled, filtered and frozen at −90° C. Prior to use in the assay, the infectious pool of virus is titered on all available cell lines in order to determine the amount of virus required in the antiviral assay.
In general, pools produced by the acute infection method require the addition of one microliter of infectious virus per well resulting in the screening of drugs at a multiplicity of infection of 0.01. In this manner, enough virus is prepared and frozen to complete over one thousand microtiter plates, allowing the testing of up to two thousand compounds from a single stock of infectious virus. The use of a single stock of virus for a long period of testing has very favorable effects on the repeatability of the assay systems. […]

[2] = system: HIV-1 isolates IIIB and/or RF in CEM cells; experiment: SRI primary anti-HIV screen, MTT assay of inhibition of HIV-induced cell killing in CEM cells; type: cell-based; conditions: for SRI CEM IC50: CEM cells; for IC50: Human immunodeficiency virus 1, IIIB, CCRF-CEM, read-out: SRI CEM IC50 ng/mL, CEM cells
Protocol: as §1
as §2, with “This” for “SRI has an established program for the primary antiviral analysis of compounds in microtiter assays which measures the ability of a selected compound to inhibit HIV-induced cell killing. This”
as §3, §4, §5
Drugs are solubilized in the appropriate vehicle such as distilled water or DMSO if necessary. Latex gloves, lab coats and masks are used during all phases of the handling process to prevent exposure to potentially harmful agents. The drug is prepared at the appropriate concentration and stored at −20° C. until used by the screening laboratory. The first dilution of each compound is made in a dilution tube with medium to yield a concentration two-fold that of the highest test concentration. Sterile titer tubes are then used to make serial one half-log dilutions of each compound. Following drug dilution, the diluted compound is added to the appropriate well of a 96-well microtiter plate. Up to 12 dilutions can be assayed conveniently in triplicate on a single plate with all appropriate controls including cell control, virus control, toxicity control, drug color control, medium control and plastic (background) control. When testing includes only six dilutions, two drugs can be assayed on a single microtiter plate. The drugs are added to the plate in a final volume of 100 microliters.
as §6, §7, §8, §9, §10
In general, pools produced by the acute infection method require the addition of one microliter of infectious virus per well resulting in the screening of drugs at a multiplicity of infection of 0.01. In this manner, enough virus is prepared and frozen to complete over one thousand microtiter plates, allowing the testing of up to two thousand compounds from a single stock of infectious virus.
Virus infection of the CEM and MT-2 cells for the antiviral assay is carried out in a bulk infection process.

Compound | SRI MT2 IC50 [1] | SRI CEM IC50 [2] | IC50 [1] [ng/mL] | IC50 [2] [ng/mL]
[3S-(3R*,4aR*,8aR*,2′S*,3′S*)]-2-[2′-Hydroxy-3′-phenylmethyl-4′-aza-5′-oxo-5′-[2″-methyl-3″-N-(methylsulfonyl)amino-phenyl)]pentyl] decahydroisoguinoline-3-N-t-butylcarboxamide [Example 36] | 1.87 µg/mL and 2.3 µg/mL | 2.43 µg/mL and 1.73 µg/mL | – | –
CC(C)(C)NC(=O)C1CC2CCCCC2CN1CC(O)C(Cc1ccccc1)NC(=O)c1ccccc1C(F)(F)F (stereo not drawn) [Example 15, [3S-(3R*,4aR*,8aR*,2′S*,3′R*)]-2-[2′-Hydroxy-3′-phenylmethyl-4′-aza-5′-oxo-5′-(2″-trifluoromethylphenyl)pentyl] decahydroisoquinoline-3-N-t-butylcarboxamide] | 1.47 µg/mL | 1.59 µg/mL | 1680 (≈ 2.93 µM) | 1430 (≈ 2.49 µM)
CC(C)c1c(O)cccc1C(=O)NC(Cc1ccccc1)C(O)CN1CC2CCCCC2CC1C(=O)NC(C)(C)C (stereo not drawn) [Example 20, [3S-(3R*,4aR*,8aR*,2′S*,3′R*)]-2-[2′-Hydroxy-3′-phenylmethyl-4′-aza-5′-oxo-5′-(2″-iospropyl-3″-hydroxyphenyl)pentyl] decahydroisoquinoline-3-N-t-butylcarboxamide] | – | – | 144 (≈ 0.255 µM) | 153 (≈ 0.271 µM)
CC(C)(C)NC(=O)C1CC2CCCCC2CN1CC(O)C(Cc1ccccc1)NC(=O)c1c(Cl)ccc(O)c1Cl (stereo not drawn) [Example 17, [3S-(3R*,4aR*,8aR*,2′S*,3′R*)]-2-[2′-Hydroxy-3′-phenylmethyl-4′-aza-5′-oxo-5′-(2″,6″-dichloro-3″-hydroxyphenyl)pentyl] decahydroisoquinoline-3-N-t-butylcarboxamide] | 8.99 µg/mL and 5.39 µg/mL | 2.9 µg/mL and 2.5 µg/mL | – | –
Cc1c(O)cccc1C(=O)NC(Cc1ccccc1)C(O)CN1CC2CCCCC2CC1C(=O)NC(C)(C)C (stereo not drawn) [Example 23, [3S-(3R*,4aR*,8aR*,2′S*,3′R*)]-2-[2′-Hydroxy-3′-phenylmethyl-4′-aza-5′-oxo-5′-(2″-methyl-3″-hydroxyphenyl)pentyl] decahydroisoquinoline-3-N-t-butylcarboxamide] | 0.00627 µg/mL | 0.00862 µg/mL | – | –
Cc1c(N)cccc1C(=O)NC(Cc1ccccc1)C(O)CN1CC2CCCCC2CC1C(=O)NC(C)(C)C (stereo not drawn) [Example 18, [3S-(3R*,4aR*,8aR*,2′S*,3′R*)]-2-[2′-Hydroxy-3′-phenylmethyl-4′-aza-5′-oxo-5′-(2″-methyl-3″-aminophenyl)pentyl] decahydroisoquinoline-3-N-t-butylcarboxamide] | 0.232 µg/mL | 0.231 µg/mL | 254 (≈ 0.475 µM) | 256 (≈ 0.479 µM)
Cc1c(O)cccc1C(=O)NC(Cc1ccccc1)C(O)CN1CC2CCCCC2CC1C(=O)NC(C)(C)C (stereo not drawn) [Example 12, [3S-(3R*,4aR*,8aR*,2′S*,3′R*)]-2-[2′-Hydroxy-3′-phenylmethyl-4′-aza-5′-oxo-5′-(2″-methyl-3″-hydroxyphenyl)pentyl] decahydroisoquinoline-3-N-t-butylcarboxamide] | 0.0243 µg/mL | 0.0118 µg/mL | – | 16.5 (≈ 0.0308 µM)
CC(C)(C)NC(=O)C1CC2CCCCC2CN1CC(O)C(Cc1ccccc1)NC(=O)c1cccnc1Cl (stereo not drawn) [Example 2, [3S-(3R*,4aR*,8aR*,2′S*,3′R*)]-2-[2′-Hydroxy-3′-phenylmethyl-4′-aza-5′-oxo-5′-(2″-chloro-pyrid-3″-yl)pentyl] decahydroisoquinoline-3-N-t-butylcarboxamide] | 1.63 µg/mL | 1.58 µg/mL | 1580 (≈ 2.92 µM) | 1380 (≈ 2.55 µM)
Cc1c(O)cccc1C(=O)N[C@@H](CSc1ccc2ccccc2c1)[C@H](O)CN1CCCC[C@H]1C(=O)NC(C)(C)C [Example 25, [2S-(2R*,2′S*,3′S*)]-1-[2′-Hydroxy-3′-(naphth-2-ylthiomethyl-4′-aza-5′-oxo-5′-(2″-methyl-3″-hydroxyphenyl)pentyl]piperidine-2-N-t-butylcarboxamide] | – | – | 169 (≈ 0.3 µM) | 211 (≈ 0.374 µM)
Cc1c(O)cccc1C(=O)NC(CSc1ccc2ccccc2c1)C(O)CN1CC2CCCCC2CC1C(=O)NC(C)(C)C (stereo not drawn) [Example 24, [3S-(3R*,4aR*,8aR*,2′S*,3′R*)]-2-[2′-Hydroxy-3′-(naphth-2-ylthiomethyl)-4′-aza-5′-oxo-5′-(2″-methyl-3″-hydroxyphenyl)pentyl] decahydroisoquinoline-3-N-t-butylcarboxamide] | 0.0464 µg/mL | – | 41.4 (≈ 0.067 µM) | 67 (≈ 0.108 µM)
CCCc1c(O)cccc1C(=O)NC(Cc1ccccc1)C(O)CN1CC2CCCCC2CC1C(=O)NC(C)(C)C (stereo not drawn) [Example 22, [3S-(3R*,4aR*,8aR*,2′S*,3′R*)]-2-[2′-Hydroxy-3′-phenylmethyl-4′-aza-5′-oxo-5′-(2″-propyl-3″-hydroxyphenyl)pentyl] decahydroisoquinoline-3-N-t-butylcarboxamide] | – | – | 53 (≈ 0.094 µM) | 136 (≈ 0.241 µM)
Cc1c(O)cccc1C(=O)N[C@@H](Cc1ccccc1)[C@H](O)CN1CCN(Cc2cccnc2)C[C@H]1C(=O)NC(C)(C)C [Example 26, [2S-(2R*,2′S*,3′R*)]-1-[2′-Hydroxy-3′-phenylmethyl-4′-aza-5′-oxo-5′-(2″-methyl-3″-hydroxyphenyl)pentyl]-4-(pyrid-3′″-ylmethyl) piperazine-2-N-t-butylcarboxamide] | – | – | 49 (≈ 0.0854 µM) | 49.7 (≈ 0.0866 µM)
CC(C)(C)NC(=O)C1CC2CCCCC2CN1CC(O)C(Cc1ccccc1)NC(=O)c1cccc(O)c1F (stereo not drawn) [Example 1, [3S-(3R*,4aR*,8aR*,2′S*,3′R*)]-2-[2′-Hydroxy-3′-phenylmethyl-4′-aza-5′-oxo-5′-(2″-fluoro-3″-hydroxyphenyl)pentyl]decahydroisoquinoline-3-N-t-butylcarboxamide] | 1.5 µg/mL | 1.38 µg/mL | 1310 (≈ 2.43 µM) | 1000 (≈ 1.85 µM)
CC(C)(C)NC(=O)C1CC2CCCCC2CN1CC(O)C(Cc1ccccc1)NC(=O)c1ccc[n+]([O-])c1 (stereo not drawn) [Example 5, [3S-(3R*,4aR*,8aR*,2′S*,3′R*)]-2-[2′-Hydroxy-3′-phenylmethyl-4′-aza-5′-oxo-5′-(pyrid-3″yl-N-oxidyl)pentyl] decahydroisoquinoline-3-N-t-butylcarboxamide] | 5.03 µg/mL | 4.43 µg/mL | 7800 (≈ 14.9 µM) | 4970 (≈ 9.51 µM)
